Test [1] addresses T1, GLP-1R (Homo sapiens, UniProt P43220). Briefly: HitHunter cAMP assay (GLP-1R). To be noted: cAMP; for Emax: read-out: (Emax) GLP-1R. The test is classed as cell-based. Put shortly: (§1)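 Suspension cells (10,000/well) in HBSS with 10 mM HEPES, 625 μM IBMX, 0.2% BSA exposed to 22-point 2-fold agonist series in duplicate for 30 min at room temperature. cAMP measured by antibody immunocompetition with overnight development, luminescence read-out.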

Another test deals with T2, GIP-R (Homo sapiens, UniProt P48546).
T2 sequence (P48546 22-466): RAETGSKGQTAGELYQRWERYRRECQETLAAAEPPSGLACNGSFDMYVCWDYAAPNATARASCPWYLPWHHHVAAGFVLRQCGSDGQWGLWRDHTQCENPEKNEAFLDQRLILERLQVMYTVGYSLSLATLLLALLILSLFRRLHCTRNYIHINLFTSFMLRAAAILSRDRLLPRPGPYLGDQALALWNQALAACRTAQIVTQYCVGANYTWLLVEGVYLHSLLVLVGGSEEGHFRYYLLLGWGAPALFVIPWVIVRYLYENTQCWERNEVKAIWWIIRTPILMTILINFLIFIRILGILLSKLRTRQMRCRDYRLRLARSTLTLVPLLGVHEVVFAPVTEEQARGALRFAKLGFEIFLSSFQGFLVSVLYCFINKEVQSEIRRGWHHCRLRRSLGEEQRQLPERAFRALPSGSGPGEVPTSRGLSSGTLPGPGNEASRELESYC
Briefly: HitHunter cAMP assay (GIP-R). It is filed as cell-based. To be noted: cAMP; for Emax: read-out: (Emax) GIP-R. Put shortly:
as §1

A further test relates to mice. Briefly: Glucose tolerance test (GTT). It is filed as in vivo, mouse. The following applies: 24 h GTT, s.c., percent of vehicle. Put shortly: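 Compounds diluted in PBS from 1 mM DMSO stocks and given subcutaneously 15 min (5-6 h fast), 4 h (16 h overnight fast), 16 h or 24 h before intraperitoneal glucose (2 g/kg). Tail blood glucose read at 10–120 min post-glucose, at least 6 mice per time-point. Glucose AUC over time determined.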

Test [2] addresses T1, GLP-1R. Briefly: PathHunter β-arrestin assay. It is filed as cell-based. Put shortly:
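Cells (5,000/well) plated overnight, then exposed to a 22-point 2-fold agonist dilution series in medium with 0.2% BSA for 90 min at 37 °C, 5% CO2. PathHunter detection reagent added; after 3 h at room temperature in the dark, luminescence read.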

The mark [3] stands for this setting: Table 3, read-out: EC50 GLP-1R/nM.
Setting [4] is: Table 3A, read-out: EC50 GLP-1R/nM.
Where [5] appears, read: Table 3, read-out: EC50 GIP-R/nM.
The mark [6] stands for this setting: Table 3A, read-out: EC50 GIP-R/nM.
The mark [7] stands for this setting: PathHunter β-arrestin assay, read-out: β-arrestin activity EC50.

Where two headings read alike, the source gives them in different places.

For 5 molecules, Emax, EC50 and AUC score results are on record in patent publication US20260176320A1, “MODULATORS OF G-PROTEIN COUPLED RECEPTORS” (priority 2018, published 2026).

T1 sequence (P43220 24-463): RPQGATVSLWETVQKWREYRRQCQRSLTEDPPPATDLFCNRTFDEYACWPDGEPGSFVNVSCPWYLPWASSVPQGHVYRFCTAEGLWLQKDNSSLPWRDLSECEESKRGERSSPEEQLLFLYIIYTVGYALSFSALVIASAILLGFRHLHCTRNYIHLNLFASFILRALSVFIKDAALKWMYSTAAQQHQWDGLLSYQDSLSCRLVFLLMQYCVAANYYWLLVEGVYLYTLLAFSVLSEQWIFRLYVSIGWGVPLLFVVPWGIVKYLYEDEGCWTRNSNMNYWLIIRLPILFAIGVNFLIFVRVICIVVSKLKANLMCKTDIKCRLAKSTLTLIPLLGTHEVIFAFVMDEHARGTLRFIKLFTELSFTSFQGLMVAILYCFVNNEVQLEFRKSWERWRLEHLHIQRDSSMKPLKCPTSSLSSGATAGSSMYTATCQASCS

Take `CCCCCCCCCCCCCCCC(=O)N[C@@H](CCC(=O)NCCCC[C@H](NC(=O)[C@H](CO)NC(=O)[C@@H]1CCCN1C(=O)[C@@H]1CCCN1C(=O)[C@@H]1CCCN1C(=O)[C@H](C)NC(=O)CNC(=O)[C@H](CO)NC(=O)[C@H](CO)NC(=O)[C@@H]1CCCN1C(=O)CNC(=O)CNC(=O)[C@H](C)NC(=O)[C@H](CC(C)C)NC(=O)[C@H](CC(C)C)NC(=O)[C@H](Cc1c[nH]c2ccccc12)NC(=O)[C@H](CC(N)=O)NC(=O)[C@@H](NC(=O)[C@H](Cc1ccccc1)NC(=O)[C@H](CCC(=O)O)NC(=O)C(C)(C)NC(=O)[C@H](C)NC(=O)[C@H](C)NC(=O)[C@H](CCC(N)=O)NC(=O)[C@H](CCCCN)NC(=O)[C@H](CC(=O)O)NC(=O)[C@H](CC(C)C)NC(=O)[C@H](Cc1ccc(O)cc1)NC(=O)[C@@H](NC(=O)[C@H](CO)NC(=O)[C@H](Cc1ccc(O)cc1)NC(=O)[C@H](CC(=O)O)NC(=O)[C@H](CO)NC(=O)[C@@H](NC(=O)[C@H](Cc1ccccc1)NC(=O)[C@@H](NC(=O)CNC(=O)[C@H](CCC(=O)O)NC(=O)CSCC(=O)NCCN1CCC(C)C1=O)[C@@H](C)O)[C@@H](C)O)[C@@H](C)CC)C(C)C)C(N)=O)C(=O)O` (single isomer, unassigned) [Compound 68]: the Emax on GLP-1R [1] (Table 3) worked out at 109%; at GLP-1R [1] (Table 3A), 109%; on GIP-R (Table 3), 87%; at GIP-R (Table 3A) it was 87%. Further, the EC50 is 0.1 to 1 nM on GLP-1R [1] (setting [3]); 0.1 to 1 nM at GLP-1R [1] (setting [4]); 0.1 to 1 nM at GIP-R (setting [5]); 0.1 to 1 nM on GIP-R (setting [6]); above 1000 nM at GLP-1R [2] (setting [7]). Besides, the AUC score in the test with mice (dose range 2-5 nmol/kg) was 2 (AUC score 2 = 26-50%).
`CCCCCCCCCCCCCCCC(=O)N[C@@H](CCC(=O)NCCCC[C@H](NC(=O)[C@H](CO)NC(=O)[C@@H]1CCCN1C(=O)[C@@H]1CCCN1C(=O)[C@@H]1CCCN1C(=O)[C@H](C)NC(=O)CNC(=O)[C@H](CO)NC(=O)[C@H](CO)NC(=O)[C@@H]1CCCN1C(=O)CNC(=O)CNC(=O)[C@H](C)NC(=O)[C@H](CC(C)C)NC(=O)[C@H](CC(C)C)NC(=O)[C@H](Cc1c[nH]c2ccccc12)NC(=O)[C@H](CC(N)=O)NC(=O)[C@@H](NC(=O)[C@H](Cc1ccccc1)NC(=O)[C@H](CCC(=O)O)NC(=O)C(C)(C)NC(=O)[C@H](C)NC(=O)[C@H](C)NC(=O)[C@H](CCC(N)=O)NC(=O)[C@H](CCCCN)NC(=O)[C@H](CC(=O)O)NC(=O)[C@H](CC(C)C)NC(=O)[C@H](Cc1ccc(O)cc1)NC(=O)[C@@H](NC(=O)[C@H](CO)NC(=O)[C@H](Cc1ccc(O)cc1)NC(=O)[C@H](CC(=O)O)NC(=O)[C@H](CO)NC(=O)[C@@H](NC(=O)[C@H](Cc1ccccc1)NC(=O)[C@@H](NC(=O)CNC(=O)[C@H](CCC(=O)O)NC(=O)CCNC(=O)CN1CCOCC1=O)[C@@H](C)O)[C@@H](C)O)[C@@H](C)CC)C(C)C)C(N)=O)C(=O)O` [Compound 233]: the Emax came out at 96% on GLP-1R [1] (Table 3A) and 77% on GIP-R (Table 3A). Moreover, the results for the EC50 at GLP-1R [1] (setting [4]), at GIP-R (setting [6]) and at GLP-1R [2] (setting [7]) were below 0.1 nM, 1 to 10 nM and 10 to 1000 nM, respectively. Moreover, the AUC score in the test with mice (dose range 2-5 nmol/kg) is given as 2 (AUC score 2 = 26-50%).
As for `CCCCCCCCCCCCCCCC(=O)N[C@@H](CCC(=O)NCCCC[C@H](NC(=O)[C@H](CO)NC(=O)[C@@H]1CCCN1C(=O)[C@@H]1CCCN1C(=O)[C@@H]1CCCN1C(=O)[C@H](C)NC(=O)CNC(=O)[C@H](CO)NC(=O)[C@H](CO)NC(=O)[C@@H]1CCCN1C(=O)CNC(=O)CNC(=O)[C@H](C)NC(=O)[C@H](CC(C)C)NC(=O)[C@H](CC(C)C)NC(=O)[C@H](Cc1c[nH]c2ccccc12)NC(=O)[C@H](CC(N)=O)NC(=O)[C@@H](NC(=O)[C@H](Cc1ccccc1)NC(=O)[C@H](CCC(=O)O)NC(=O)C(C)(C)NC(=O)[C@H](C)NC(=O)[C@H](C)NC(=O)[C@H](CCC(N)=O)NC(=O)[C@H](CCCCN)NC(=O)[C@H](CC(=O)O)NC(=O)[C@H](CC(C)C)NC(=O)[C@H](Cc1ccc(O)cc1)NC(=O)[C@@H](NC(=O)[C@H](CO)NC(=O)[C@H](Cc1ccc(O)cc1)NC(=O)[C@H](CC(=O)O)NC(=O)[C@H](CO)NC(=O)[C@@H](NC(=O)[C@H](Cc1ccccc1)NC(=O)[C@@H](NC(=O)CNC(=O)[C@H](CCC(=O)O)NC(=O)CSCC(=O)NCCN1C(=O)CCC(C)(C)C1=O)[C@@H](C)O)[C@@H](C)O)[C@@H](C)CC)C(C)C)C(N)=O)C(=O)O` [Compound 81], the EC50 was 0.1 to 1 nM at GLP-1R [1] (EC50 GLP-1R/nM, Table 3); 0.1 to 1 nM on GLP-1R [1] (EC50 GLP-1R/nM, Table 3A); 0.1 to 1 nM on GIP-R (EC50 GIP-R/nM, Table 3); 0.1 to 1 nM at GIP-R (EC50 GIP-R/nM, Table 3A); above 1000 nM on GLP-1R [2]. Besides, the Emax stood at 96% at GLP-1R [1] (Table 3), 96% at GLP-1R [1] (Table 3A), 89% on GIP-R (Table 3) and 89% at GIP-R (Table 3A). For the same molecule, the AUC score in the test with mice (dose range 2-5 nmol/kg) was 3 (AUC score 3 = 51-75%).
Take `CCCCCCCCCCCCCCCC(=O)N[C@@H](CCC(=O)NCCCC[C@H](NC(=O)[C@H](CO)NC(=O)[C@@H]1CCCN1C(=O)[C@@H]1CCCN1C(=O)[C@@H]1CCCN1C(=O)[C@H](C)NC(=O)CNC(=O)[C@H](CO)NC(=O)[C@H](CO)NC(=O)[C@@H]1CCCN1C(=O)CNC(=O)CNC(=O)[C@H](C)NC(=O)[C@H](CC(C)C)NC(=O)[C@H](CC(C)C)NC(=O)[C@H](Cc1c[nH]c2ccccc12)NC(=O)[C@H](CC(N)=O)NC(=O)[C@@H](NC(=O)[C@H](Cc1ccccc1)NC(=O)[C@H](CCC(=O)O)NC(=O)C(C)(C)NC(=O)[C@H](C)NC(=O)[C@H](C)NC(=O)[C@H](CCC(N)=O)NC(=O)[C@H](CCCCN)NC(=O)[C@H](CC(=O)O)NC(=O)[C@H](CC(C)C)NC(=O)[C@H](Cc1ccc(O)cc1)NC(=O)[C@@H](NC(=O)[C@H](CO)NC(=O)[C@H](Cc1ccc(O)cc1)NC(=O)[C@H](CC(=O)O)NC(=O)[C@H](CO)NC(=O)[C@@H](NC(=O)[C@H](Cc1ccccc1)NC(=O)[C@@H](NC(=O)CNC(=O)[C@H](CCC(=O)O)NC(=O)CCNC(=O)CN1CCCCCC1=O)[C@@H](C)O)[C@@H](C)O)[C@@H](C)CC)C(C)C)C(N)=O)C(=O)O` [Compound 266]: the Emax is 100% on GLP-1R [1] (Table 3A) and 70% on GIP-R (Table 3A). Besides, the EC50 at GLP-1R [1] (setting [4]) was below 0.1 nM; at GIP-R (setting [6]) it was 1 to 10 nM; at GLP-1R [2] (setting [7]) it was below 10 nM. Also, in the test with mice (dose range 2-5 nmol/kg), the AUC score is 2 (AUC score 2 = 26-50%).
For the molecule `CCCCCCCCCCCCCCCC(=O)N[C@@H](CCC(=O)NCCCC[C@H](NC(=O)[C@H](CO)NC(=O)[C@@H]1CCCN1C(=O)[C@@H]1CCCN1C(=O)[C@@H]1CCCN1C(=O)[C@H](C)NC(=O)CNC(=O)[C@H](CO)NC(=O)[C@H](CO)NC(=O)[C@@H]1CCCN1C(=O)CNC(=O)CNC(=O)[C@H](C)NC(=O)[C@H](CC(C)C)NC(=O)[C@H](CC(C)C)NC(=O)[C@H](Cc1c[nH]c2ccccc12)NC(=O)[C@H](CC(N)=O)NC(=O)[C@@H](NC(=O)[C@H](Cc1ccccc1)NC(=O)[C@H](CCC(=O)O)NC(=O)C(C)(C)NC(=O)[C@H](C)NC(=O)[C@H](C)NC(=O)[C@H](CCC(N)=O)NC(=O)[C@H](CCCCN)NC(=O)[C@H](CC(=O)O)NC(=O)[C@H](CC(C)C)NC(=O)[C@H](Cc1ccc(O)cc1)NC(=O)[C@@H](NC(=O)[C@H](CO)NC(=O)[C@H](Cc1ccc(O)cc1)NC(=O)[C@H](CC(=O)O)NC(=O)[C@H](CO)NC(=O)[C@@H](NC(=O)[C@H](Cc1ccccc1)NC(=O)[C@@H](NC(=O)CNC(=O)[C@H](CCC(=O)O)NC(=O)CSCC(=O)N1CCNC1=O)[C@@H](C)O)[C@@H](C)O)[C@@H](C)CC)C(C)C)C(N)=O)C(=O)O` [Compound 98], the Emax at GLP-1R [1] (Table 3) and on GLP-1R [1] (Table 3A) was 96% in each case. Besides, the EC50 was 0.1 to 1 nM at GLP-1R [1] (setting [3]); 0.1 to 1 nM at GLP-1R [1] (setting [4]); above 1000 nM on GIP-R (setting [5]); above 1000 nM on GIP-R (setting [6]); above 1000 nM at GLP-1R [2] (setting [7]). In addition, the Emax at 1 µM at GIP-R (read-out: (Emax) GIP-R at 1 μM, Table 3, at 1 μM) was below 5%. Moreover, the AUC score in the test with mice (dose range 5.1-15 nmol/kg) was 2 (AUC score 2 = 26-50%).
